In patent US20030208079A1, “Piperidinylaminomethyl trifluoromethyl cyclic ether compounds as substance P antagonists” (Pfizer Inc., priority 1997, published 2003):

Test system: plasma protein extravasation in the ureter
Assay: capsaicin-induced plasma extravasation test
Type: in vivo
Details: 0.03 mg/kg, given orally 1 hour before capsaicin challenge, male guinea pigs
Experimental: In this test, anti-inflammatory activity is determined as the percent inhibition of plasma protein extravasation in the ureter of pentobarbital-anesthetized (25 mg/kg i.p.) male Hartey guinea pigs (weighing 300-350 g). Plasma extravasation is induced by intraperitoneal injection of capsaicin (30 μM in 0.1 BSA containing buffer, 10 ml/animal) into the animals, which are fasted overnight. The compounds of this invention were dissolved in 0.1% methyl cellulose-water and given orally 1 hour before capsaicin challenge. Evans blue dye (30 mg/kg) was administered intravenously 5 minutes before challenge. The animals were killed 10 minutes after capsaicin injection and both right and left ureter were removed. Tissue dye content was quantitated at 600 nm absorbance after overnight formamide extraction.

## COc1cc2c(cc1CN[C@H]1CCCN[C@H]1c1ccccc1)C(C)(C(F)(F)F)OCC2.Cl.Cl (stereo partly drawn) [Example 3, (2S,3S)-3-(6-Methoxy-1-methyl-1-trifluoromethylisochroman-7-yl)methylamino-2-phenylpiperidine Dihydrochloride]
  percent inhibition of plasma protein extravasation: 98%
